# Values of other authors in US20230106592A1, “METHOD FOR TREATING CANCER USING A COMBINATION OF DNA DAMAGING AGENTS AND ATR INHIBITORS” (Vertex Pharmaceuticals Incorporated, priority 2015, published 2023).
# Like-named read-outs stand apart in the source and are kept apart here.
# Test system: ovarian cancer
# Settings: cited from earlier work
SMILES,"Outcome of prior line of treatment (monotherapy, refractory high grade serous ovarian cancer subject)",Outcome of prior line of treatment (ovarian cancer subject with BRCA2 germline mutation)
Cn1ncnc1[C@H]1c2n[nH]c(=O)c3cc(F)cc(c23)N[C@@H]1c1ccc(F)cc1 [Talazoparib],progressive disease after 10 months,–
O=C(c1cc(Cc2n[nH]c(=O)c3ccccc23)ccc1F)N1CCN(C(=O)C2CC2)CC1 [olaparib],–,no response
